Data set [1] relates to RSV A2. The experiment in a line: Inhibition of RSV A2 replication in A549 cells (qRT-PCR). It counts as cell-based, respiratory syncytial virus. The procedure:
A549, HEp-2 or NHBE cells were plated into 48 well-plate and incubated overnight. Upon reaching 80% cell confluence, cells were infected RSV A2 (at an MOI of 2 in A549, MOI of 0.5 in HEp-2, and MOI of 1 in NHBE cells) for 2 h after cells were incubated for 1 h with varying concentrations of drugs. Then, the virus-drug mixture was removed, and cells were cultured with drug-containing medium. At 48 h post inoculation, total RNAs were extracted from cells and then in reverse transcription using PrimeScript RT reagent Kit with gDNA Eraser (TaKaRa). For determining the viral copies, absolute quantitative RT-PCR was performed with TB Green® Premix Ex Taq^TM II (TaKaRa). RSV A2 F fragment was quantified with primers 5’-[…]-3’; and 5’-[…]-3’

The nature of data set [2]: Cellular toxicity in A549 cells (WST-8 cell viability). Format: cell-based. The conditions noted are these: human; A549 cells, 48 h; read-out: CC50. The procedure: Cell viability was performed in 96-well plate with triplicate for each concentration. All drugs were diluted 2 times with 9 gradients starting at 500 micromores in maintenance medium (DMEM containing 2% FBS). After 48 h incubation, the supernatant was removed, and 10 μL WST-8 (2-(2-methoxy-4-(phenyl)-3-(4-(phenyl) to 5 (2, 4-sulpho benzene) -2 h-tetrazolium monosodium salt) in maintenance medium was added in medium. Plates were measured at 450 nm wavelength using spectrophotometer (BioTek) after 2 h incubation, and cell viability was calculated.
(Tetrazolium assays rely on reduction of a dye to a coloured formazan, in cell work by metabolically active cells.)

The nature of data set [3]: Pharmacokinetic study in Balb/c mice. It counts as in vivo. The conditions noted are these: for Cmax: X1 in blood. The procedure:
A total of nine Balb/c mice (N = 3 for each group, male) were divided into three groups, and fasted for 12 h before dosing. The three groups received oral dose of VV116 dissolved in 40%PEG400+10% Kolliphor® HS15+50% ultrapure water at 25 mg/kg, 50 mg/kg and 100 mg/kg, respectively. At 5 min, 0.25, 0.5, 1.0, 2.0, 4.0, 6.0, 8.0, and 24 h post-dosing, blood samples were collected from the jugular vein or the submandibular vein into EDTA-K2 tubes, and immediately mixed with acetonitrile (20 µL blood + 80 μL acetonitrile). The concentrations of analytes in the blood were analyzed by LC-MS/MS.

The nature of data set [4]: Tissue distribution study in Balb/c mice. It counts as in vivo. To be noted: VV116 oral 100 mg/kg. The procedure: A total of thirty Balb/c mice were divided into five groups (3 animals/sex/group). VV116 was intragastrically administered at 100 mg/kg dissolved in 40%PEG400+10% Kolliphor® HS15+50%. At 0 (not administered), 0.25, 2, 6, and 24 h post-dosing, the five groups of mice were anesthetized, respectively. Blood samples were collected, and tissues including liver and lung were harvested. Tissue samples were individually homogenized, and blood samples were processed as above. The concentrations of X1 in liver, lung and blood were analyzed by LC-MS/MS.

A short description of data set [5]: Toxicokinetics in SD rats. Format: in vivo. The procedure:
Groups of male and female SD rats (4 animals/sex/group) received repeated oral doses of VV116 (dissolved in 40%PEG400+10% Kolliphor® HS15+50% ultrapure water) at 100 (low), 200 (mild) and 500 mg/kg/d (high) for 14 days. At day 1 and day 14, blood samples were collected from the jugular vein into EDTA-K2 tubes at various time points post-dose. Plasma samples were obtained following general procedures and the concentrations of analytes in the samples were analyzed by LC-MS/MS.

Read-outs that look alike come from different tables or passages of the source. Bounds are passed on as bounds.

Data on one molecule can be found in publication PMC9012943, “Oral remdesivir derivative VV116 is a potent inhibitor of respiratory syncytial virus with efficacy in mouse model” (Signal Transduction and Targeted Therapy, 2022).

The molecule `[2H]c1cc([C@]2(C#N)O[C@H](CO)[C@@H](O)[C@H]2O)n2ncnc(N)c12` [X1] showed an SI in data set [1] greater than 314. Moreover, the EC90 (usually the concentration needed for an effect of 90%) in data set [1] (human respiratory syncytial virus, RSV A2) was 3.56 ± 0.63 µM. Also, in data set [1] (human respiratory syncytial virus, RSV A2 MOI 2, 48 h), the EC50 (commonly the midpoint of the concentration-response curve) turned out to be 1.59 ± 0.49 µM. Besides, the half-maximal cytotoxic concentration (CC50) – broadly, the concentration giving 50% cytotoxicity – at 48 h in data set [2] is greater than 500 µM. Besides, the “Time for blood concentration of X1 to reach Cmax” value in data set [3] (Balb/c mice, following oral administration of VV116) is given as no more than 0.5 h. The peak concentration (Cmax) (usually the peak of the concentration-time curve) in data set [3] (male, mouse, whole blood, po, Balb/c mice, VV116 p.o. 25 mg/kg, read-out: Cmax) came out at 5360 ng/mL; in data set [3] (male, mouse, whole blood, Balb/c mice, VV116 oral 25 mg/kg, read-out: mean Cmax), 18.4 µM. The half-life (commonly how long it takes for the measured level to halve) in data set [3] (male, mouse, whole blood, X1, Balb/c mice, VV116 oral 25 to 100 mg/kg, read-out: elimination half-life) lay in the range of 2.3 to 4.25 h. In data set [4], the “concentration of X1 in the lung relative to that in the liver” value is “about half”. In data set [5] (both sexes, rat, plasma, po, X1, SD rats, VV116 p.o. 200 mg/kg, Total, Day 1), this molecule displayed an AUC0-t of 85200 ng·h/mL. Besides, the “AUC0–t of X1 at rat NOAEL (200 mg/kg) relative to that at 50 mg/kg in mice” value in data set [5] (in vivo) is listed as ~ 3.5 folds.
